Results reported in patent US20050250850A1, “Amino acid composition promoting collagen synthesis” (Ajinomoto Co., Inc., priority 2004, published 2005).

Test system: collagen synthesis in skin
Experiment: Rate of collagen synthesis in rat skin (incorporation of stable isotope-labelled L-phenylalanine into collagen)
Type: in vivo, SD (IGS) male rats
Conditions: rats fed protein-free food for one week, continuous administration into the jugular vein for approx. three and a half hours, neutral-salt-soluble newly synthesized collagen, t-test vs saline, * p<0.05, FIG. 1
Excerpt: SD (IGS) male rats consisting of 4 to 6 individuals per group were fed protein-free food (0% casein) for one week to groups of, after which the rats were used in the following experiments.
The administration fluids were each administered continuously into the jugular vein for approximately three and a half hours. Stable isotope-labelled L-phenylalanine was used to determine the rate of collagen synthesis by measuring the labelled percentage of stable isotope-labelled L-phenylalanine that had been incorporated in collagen protein within a fixed period of time. Skin was used as the tissue, and fractions of newly synthesized collagen dissoluble in a neutral salt solution were used as the collagen.
The group administered with physiological saline was used as the control, and assay was conducted by t-test. The symbol * in the figure represents p<0.05. […] Rate of collagen synthesis=ΔEt/ΔEf/ΔT (1) • ΔEt: labelled percentage of the phenylalanine in collagen fractions per unit time • ΔEf: labelled percentage of the free phenylalanine in the skin tissue fluid per unit time • ΔT: unit time

## NC(=O)CC[C@H](N)C(=O)O [L-glutamine]
  rate of collagen synthesis in comparison with the group administered with physiological saline: enhancement from saline was not observed
